From the NIST ThermoML archive (doi:10.1021/je800940j)

Legend:
[1] = xn = mol fraction of the nth substance listed; conditions: Liquid; for viscosity: Concentric cylinders viscometry
[2] = 101 kPa, Liquid

C1CC[C@H]2CCCC[C@H]2C1 [cis-decahydronaphthalene] + C1CC[C@H]2CCCC[C@@H]2C1
[1], 101.3 kPa, x1 = 0.4106
Conditions | mass density [kg/m3] | viscosity [mPa·s]
283.15 K | 887.8 | 3.097
293.15 K | 880.25 | 2.504
303.15 K | 872.7 | 2.066
313.15 K | 865.15 | 1.734
323.15 K | 857.65 | 1.477

C1CCCCC1 [cyclohexane]
[2]
Conditions | mass density [kg/m3]
283.15 K | 787.95
293.15 K | 778.7
303.15 K | 769.2
313.15 K | 759.65
323.15 K | 749.9

[2], Concentric cylinders viscometry
Conditions | viscosity [mPa·s]
283.15 K | 1.18
293.15 K | 0.9847
303.15 K | 0.8295
313.15 K | 0.7061
323.15 K | 0.5978

Cc1ccccc1 [toluene]
[2]
Conditions | mass density [kg/m3]
283.15 K | 876.1
293.15 K | 866.75
303.15 K | 857.48
313.15 K | 848.08
323.15 K | 838.7

[2], Automatic viscometer
Conditions | viscosity [mPa·s]
283.15 K | 0.6657
293.15 K | 0.5958
303.15 K | 0.5368
313.15 K | 0.4859
323.15 K | 0.4408

Cc1ccccc1 [toluene] + C1CCCCC1
[1], 101 kPa, x2 = 0
Conditions | mass density [kg/m3] | viscosity [mPa·s]
283.15 K | 876.1 | 0.6657
293.15 K | 866.75 | 0.5958
303.15 K | 857.48 | 0.5368
313.15 K | 848.08 | 0.4859
323.15 K | 838.7 | 0.4408
